In patent publication US20050250826A1, “Compounds, compositions, processes of making, and methods of use related to inhibiting macrophage migration inhibitory factor” (priority 2004, published 2005):
pIC50: −log10 of the molar value.

Columns and labels:
carageenin-induced edema = conditions: rat paw; compared to parent compound unsubstituted in the para position of the phenyl ring; Curuzu et al. 1991; cited from earlier work
recombinant human MIF = target: T1, recombinant human MIF (Homo sapiens, UniProt P14174); assay: MIF dopachrome tautomerase assay; format: biochemical; conditions: dose-dependent inhibition
T1 construct: made in house; host or cells: E. coli
T1 sequence (P14174 2-115 limits assumed): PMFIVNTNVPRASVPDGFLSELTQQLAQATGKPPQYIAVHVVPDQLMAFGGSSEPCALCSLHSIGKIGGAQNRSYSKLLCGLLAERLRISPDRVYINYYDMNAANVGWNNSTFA
Excerpt: The compounds of Formula I or II are identified as MIF inhibitors because they inhibit MIF enzymatic activity in vitro. […] This reaction predicts therapeutic MIF inhibitors (see U.S. Pat. No. 6,420,188 and U.S. Pat. No. 6,599,938, the disclosures of which are incorporated herein by reference in their entirety). Inhibition of MIF tautomerase activity is predictive of inhibition of MIF biological activity.
A method for performing an assay for MIF dopachrome tautomerase activity begins with the preparation and oxidation of a DOPA-related substrate precursor, such as L-3,4-dihydroxyphenylalanine methyl ester. […] The absorbance is measured at about 475 nm (or 550 nm for substrate concentrations in excess […]). A test compound may be included in the assay solution such that the effect of the test compound on MIF tautomerase activity (i.e., as an inhibitor) may be measured by noting the change in kinetics of substrate tautomerization compared to control assays performed in the absence of the test inhibitor compound. […]
L-3,4-dihydroxyphenylalanine methyl ester (e.g., Sigma D-1507) is a dopachrome substrate precursor, and is prepared as a 4 mM solution in dd H2O Sodium periodate is prepared as an 8 mM solution in dd H2O. […] Inhibition of MIF tautomerase activity by the test compounds is determined by inhibition of the de-colorization of the assay mixture, often at the 20 sec time point. […]

| Compound | pIC50 (recombinant human MIF) | anti-inflammatory activity (carageenin-induced edema) | also measured |
| --- | --- | --- | --- |
| COc1ccc(C2=NOC(CC(=O)O)C2)cc1 (centres unmarked) [3-(4-methoxyphenyl)-4,5-dihydro-5-isoxazolineacetic acid] |  | dramatically reduced |  |
| CCOC(=O)C(C)CC1CC(c2ccc(O)cc2)=NO1 (centres unmarked) [Compound 32] |  |  | melting point: 192 to 194 °C |
| O=C(O)CC1CC(c2ccc(O)cc2)=NO1 (centres unmarked) [3-(4-hydroxyphenyl)-4,5-dihydro-5-isoxazolineacetic acid] |  | devoid of anti-inflammatory activity |  |

Further lines, with some results ahead:

| pIC50 (recombinant human MIF) | Compound | anti-inflammatory activity (carageenin-induced edema) | also measured |
| --- | --- | --- | --- |
| ~5.00 | O=C(CC1CC(c2ccc(O)cc2)=NO1)N1CCCC1 (centres unmarked) [Compound 68] |  |  |
| ~5.00 | O=C(CC1CC(c2ccc(O)cc2)=NO1)N1CCOCC1 (centres unmarked) [Compound 69] |  |  |
